Data from patent publication US4959368A, “Therapeutic agent for neurological diseases” (Mitsui Petrochemical Industries Ltd., priority 1986, dated 1990).

Tested on: mouse neuroblastoma cell line neuro-2a
Experiment: Activity on neuro-2a, cells with outgrown neurites
Type: cell-based
Protocol: In order to examine the effects of the test compounds, the following method was also employed.
Mouse neuro 2a cells in the logarithmic growth period in the Dulbecco's modified Eagle's medium (DMEM) containing 10% FCS was seeded in a 48-well plate so that the number of cells was 1,000 cells/well, and cultured for one day in 0.25 ml of the culture fluid in each well. The culture medium was then replaced by a medium containing each of the test compounds and FCS, and the cells were further cultured for 24 hours. Then, a 4% aqueous glutaraldehyde solution in the same amount as the medium (0.25 ml) was added, and the culture fluid was left to stand at room temperature for 2 hours to fix the cells. After washing with water, a 0.05% aqueous solution of methylene blue was added to stain the cells. Under a microscope, the number of cells containing outgrown neurites (cells having at least one neutrite with a length at least two times as large as the long diameter of the cell) was counted visually, and the proportion of these cells in the entire cells was calculated. The well was observed over 5 or more visual fields (at least 2% of the entire surface area of the well) continuous to the left and right from a mark put at the center of the well, and more than 200 cells was counted. One drug compound was used in 6 different concentrations at most, and three runs were conducted for each concentration.

[1] = Table 3 Run No. 4, 0.1 mM, control 3.1 ± 0.2
[2] = Table 3 Run No. 4, 1 mM, control 3.1 ± 0.2
[3] = Table 3 second Run No. 5, 1 mM, control 4.5 ± 0.3
[4] = Table 3 Run No. 8, 0.3 mM, control 3.7 ± 0.4
[5] = Table 3 Run No. 8, 0.5 mM, control 3.7 ± 0.4
[6] = Table 3 Run No. 8, 1 mM, control 3.7 ± 0.4
[7] = Table 3 Run No. 2, 1 mM, control 1.9 ± 0.9
[8] = Table 3 Run No. 9, 0.1 mM, control 2.0 ± 1.0
[9] = Table 3 Run No. 4, 0.3 mM, control 3.1 ± 0.2
[10] = Table 3 Run No. 4, 0.5 mM, control 3.1 ± 0.2
[11] = Table 3 Run No. 9, 0.03 mM, control 2.0 ± 1.0
[12] = Table 3 Run No. 9, 0.3 mM, control 2.0 ± 1.0
[13] = Table 3 Run No. 2, 0.3 mM, control 1.9 ± 0.9
[14] = Table 3 Run No. 10, 0.1 mM, control 1.7 ± 0.7

For `CCOC(=O)CC1C(=O)N(C)c2nc(N3CCNCC3)ncc21` (stereo not shown) [Compound 674], the “Cells having neurites with a length at least twice the long diameter of cell/total number of cells” value (Table 3 Run No. 11, 0.03 mM, control 2.5 ± 0.6) was 4.2 ± 0.8%, the “Cells having neurites with a length at least twice the long diameter of cell/total number of cells” value (Table 3 Run No. 11, 0.1 mM, control 2.5 ± 0.6) was 6.7 ± 1.3% and the “Cells having neurites with a length at least twice the long diameter of cell/total number of cells” value (Table 3 Run No. 11, 0.3 mM, control 2.5 ± 0.6) was 4.5 ± 1.9%.

With `CC1Cc2nc(N3CCNCC3)ncc2C(=O)O1.Cl` (stereo not shown) [Compound 918, 7,8-Dihydro-7-methyl-5-oxo-2-piperazino(5H)pyrano[4,3-d]pyrimidine hydrochloride] the “Cells having neurites with a length at least twice the long diameter of cell/total number of cells” value [1] was 7.4 ± 2.5% and the “Cells having neurites with a length at least twice the long diameter of cell/total number of cells” value [2] was 12.5 ± 0.9%.

With `Cn1ccc2nc(N3CCNCC3)ncc2c1=O` [Compound 707] the “Cells having neurites with a length at least twice the long diameter of cell/total number of cells” value (Table 3 Run No. 7, 0.3 mM, control 2.5 ± 0.7) was 7.3 ± 1.0%, the “Cells having neurites with a length at least twice the long diameter of cell/total number of cells” value (Table 3 Run No. 7, 0.5 mM, control 2.5 ± 0.7) was 10.5 ± 1.5% and the “Cells having neurites with a length at least twice the long diameter of cell/total number of cells” value (Table 3 Run No. 7, 1 mM, control 2.5 ± 0.7) was 21.4 ± 1.7%. The “Cells having neurites with a length at least twice the long diameter of cell/total number of cells” value (Table 3 second Run No. 5, 0.01 mM, control 4.5 ± 0.3) was 6.1 ± 0.5% and the “Cells having neurites with a length at least twice the long diameter of cell/total number of cells” value [3] was 36.1 ± 3.7%.

For `CN1C(=O)Cc2cnc(N3CCNCC3)nc21.O=P(O)(O)O` [Compound 418, 5,6-Dihydro-7-methyl-6-oxo-2-piperazino(7H)pyrrolo[2,3-d]pyrimidine phosphate], the “Cells having neurites with a length at least twice the long diameter of cell/total number of cells” value [4] was 16.6 ± 1.1%, the “Cells having neurites with a length at least twice the long diameter of cell/total number of cells” value [5] was 29.6 ± 3.3% and the “Cells having neurites with a length at least twice the long diameter of cell/total number of cells” value [6] was 47.4 ± 1.6%.

In the case of `Cc1nc(N2CCNCC2)nc2c1CC(=O)N2C.Cl` [Compound 466, 5,6-Dihydro-4,7-dimethyl-6-oxo-2-piperazino(7H)pyrrolo[2,3-d]pyrimidine hydrochloride], the “Cells having neurites with a length at least twice the long diameter of cell/total number of cells” value (Table 3 second Run No. 5, 0.1 mM, control 4.5 ± 0.3) is reported as 5.4 ± 0.3% and the “Cells having neurites with a length at least twice the long diameter of cell/total number of cells” value [3] is reported as 13.1 ± 1.4%.

With `CC1C(=O)N(C)c2nc(N3CCNCC3)ncc21.O=C(O)/C=C\C(=O)O` (stereo not shown) [Compound 446, 5,6-Dihydro-5,7-dimethyl-6-oxo-2-piperazino(7H)pyrrolo[2,3-d]pyrimidine maleate] the “Cells having neurites with a length at least twice the long diameter of cell/total number of cells” value (Table 3 Run No. 9, 0.5 mM, control 2.0 ± 1.0) was 6.3 ± 0.4% and the “Cells having neurites with a length at least twice the long diameter of cell/total number of cells” value (Table 3 Run No. 9, 1 mM, control 2.0 ± 1.0) was 9.2 ± 2.0%.

`CCN(CC)C(=O)c1cnc(N2CCNCC2)nc1OC` [Compound 112] was tested, and the “Cells having neurites with a length at least twice the long diameter of cell/total number of cells” value [7] was 3.5 ± 0.5%.

With `CCC(C)N1Cc2nc(N3CCNCC3)ncc2C1=O` (stereo not shown) [Compound 638] the “Cells having neurites with a length at least twice the long diameter of cell/total number of cells” value [8] was 6.5 ± 0.2%.

In the case of `CN1C(=O)Cc2cnc(N3CCNCC3)nc21` [Compound 410], the “Cells having neurites with a length at least twice the long diameter of cell/total number of cells” value [4] is reported as 22.4 ± 2.9%, the “Cells having neurites with a length at least twice the long diameter of cell/total number of cells” value [5] is reported as 36.7 ± 6.1% and the “Cells having neurites with a length at least twice the long diameter of cell/total number of cells” value [6] is reported as 15.5 ± 0.3%.

In the case of `CN1C(=O)Cc2cnc(N3CCNCC3)nc21` [Compound 416], the “Cells having neurites with a length at least twice the long diameter of cell/total number of cells” value (Table 3 Run No. 8, 0.1 mM, control 3.7 ± 0.4) is reported as 11.7 ± 3.3%, the “Cells having neurites with a length at least twice the long diameter of cell/total number of cells” value [4] is reported as 40.4 ± 9.2% and the “Cells having neurites with a length at least twice the long diameter of cell/total number of cells” value [5] is reported as 48.7 ± 5.7%.

With `CN1C(=O)Cc2cnc(N3CCNCC3)nc21` [Compound 412] the “Cells having neurites with a length at least twice the long diameter of cell/total number of cells” value (Table 3 Run No. 3, 0.3 mM, control 3.9 ± 0.3) was 16.6 ± 2.6%, the “Cells having neurites with a length at least twice the long diameter of cell/total number of cells” value (Table 3 Run No. 3, 1 mM, control 3.9 ± 0.3) was 44.2 ± 1.4% and the “Cells having neurites with a length at least twice the long diameter of cell/total number of cells” value [9] was 15.8 ± 2.3%. For the same molecule, the “Cells having neurites with a length at least twice the long diameter of cell/total number of cells” value [10] was 27.9 ± 2.9%, the “Cells having neurites with a length at least twice the long diameter of cell/total number of cells” value [2] was 47.8 ± 0.4% and the “Cells having neurites with a length at least twice the long diameter of cell/total number of cells” value [4] was 18.4 ± 0.5%. The “Cells having neurites with a length at least twice the long diameter of cell/total number of cells” value [5] was 49.5 ± 3.5% and the “Cells having neurites with a length at least twice the long diameter of cell/total number of cells” value [6] was 32.6 ± 1.3%.

`CN1C(=O)Cc2cnc(N3CCN(Cc4ccc5c(c4)OCO5)CC3)nc21` [Compound 436, 5,6-Dihydro-7-methyl-2[4-(3,4-methylenedioxyphenylmethyl)piperazino]-6-oxo(7H)pyrrolo[2,3-d]pyrimidine] was tested, and the “Cells having neurites with a length at least twice the long diameter of cell/total number of cells” value [11] was 14.3 ± 2.9%, the “Cells having neurites with a length at least twice the long diameter of cell/total number of cells” value [8] was 15.6 ± 7.3% and the “Cells having neurites with a length at least twice the long diameter of cell/total number of cells” value [12] was 12.5 ± 6.2%.

For `CCCN(CCC)C(=O)c1cnc(N2CCNCC2)nc1NCC` [Compound 104], the “Cells having neurites with a length at least twice the long diameter of cell/total number of cells” value [13] was 10.6 ± 4.6% and the “Cells having neurites with a length at least twice the long diameter of cell/total number of cells” value [7] was 5.3 ± 1.8%.

In the case of `CN1C(=O)Cc2cnc(N3CCN(Cc4ccccc4)CC3)nc21` [Compound 434, 2-(4-Benzylpiperazino)-5,6-dihydro-7-methyl-6-oxo(7H)pyrrolo[2,3-d]pyrimidine 2-naphthalenesulfonate], the “Cells having neurites with a length at least twice the long diameter of cell/total number of cells” value [8] is reported as 6.0 ± 1.2%.

For `CC(C)(C)N1Cc2nc(N3CCNCC3)ncc2C1=O` [Compound 642], the “Cells having neurites with a length at least twice the long diameter of cell/total number of cells” value [8] was 9.5 ± 1.2% and the “Cells having neurites with a length at least twice the long diameter of cell/total number of cells” value [12] was 14.4 ± 4.0%.

In the case of `Cc1nc(N2CCNCC2)nc2c1CC(=O)N2C` [Compound 464, 5,6-Dihydro-4,7-dimethyl-6-oxo-2-piperazino(7H)pyrrolo[2,3-d]pyrimidine], the “Cells having neurites with a length at least twice the long diameter of cell/total number of cells” value [1] is reported as 7.1 ± 1.6%, the “Cells having neurites with a length at least twice the long diameter of cell/total number of cells” value [9] is reported as 10.1 ± 1.9% and the “Cells having neurites with a length at least twice the long diameter of cell/total number of cells” value [2] is reported as 13.1 ± 1.1%.

With `CCCC(C)N1Cc2nc(N3CCNCC3)ncc2C1=O` (stereo not shown) [Compound 646] the “Cells having neurites with a length at least twice the long diameter of cell/total number of cells” value [14] was 7.3 ± 0.2%.

For `CNc1nc(N2CCNCC2)ncc1CCO` [Compound 140, 2-Piperazino-5-(2-hydroxyethyl)-4-methylaminopyrimidine 2-naphthalenesulfonate], the “Cells having neurites with a length at least twice the long diameter of cell/total number of cells” value [11] was 3.7 ± 1.4%.

With `NC(=O)CN1Cc2nc(N3CCNCC3)ncc2C1=O` [Compound 652] the “Cells having neurites with a length at least twice the long diameter of cell/total number of cells” value [7] was 4.5 ± 0.3%.

`CN1CCc2cnc(N3CCNCC3)nc21` [Compound 914, 5,6-Dihydro-7-methyl-2-piperazino(7H)pyrrolo[2,3-d]pyrimidine naphthalene-2-sulfonate] was tested, and the “Cells having neurites with a length at least twice the long diameter of cell/total number of cells” value [14] was 4.9 ± 0.9% and the “Cells having neurites with a length at least twice the long diameter of cell/total number of cells” value (Table 3 Run No. 10, 0.3 mM, control 1.7 ± 0.7) was 4.6 ± 0.8%.

With `CCOC(=O)N1CCN(c2ncc3c(n2)N(C)C(=O)C3)CC1` [Compound 442] the “Cells having neurites with a length at least twice the long diameter of cell/total number of cells” value (Table 3 Run No. 2, 0.1 mM, control 1.9 ± 0.9) was 5.7 ± 0.5%, the “Cells having neurites with a length at least twice the long diameter of cell/total number of cells” value [13] was 7.1 ± 2.6% and the “Cells having neurites with a length at least twice the long diameter of cell/total number of cells” value [7] was 9.1 ± 0.8%. For the same molecule, the “Cells having neurites with a length at least twice the long diameter of cell/total number of cells” value (Table 3 Run No. 9, 3 mM, control 2.0 ± 1.0) was 13.8 ± 1.2%.

`COCCN1C(=O)Cc2cnc(N3CCNCC3)nc21.O=C(O)/C=C\C(=O)O` [Compound 430, 5,6-Dihydro-7-(2-methoxyethyl)-6-oxo-2-piperazino(7H)pyrrolo[2,3-d]pyrimidine maleate] was tested, and the “Cells having neurites with a length at least twice the long diameter of cell/total number of cells” value [1] was 7.2 ± 1.9%, the “Cells having neurites with a length at least twice the long diameter of cell/total number of cells” value [10] was 11.7 ± 1.8% and the “Cells having neurites with a length at least twice the long diameter of cell/total number of cells” value [2] was 13.4 ± 0.4%. For the same molecule, the “Cells having neurites with a length at least twice the long diameter of cell/total number of cells” value (Table 3 second Run No. 5, 0.3 mM, control 4.5 ± 0.3) was 7.6 ± 0.8% and the “Cells having neurites with a length at least twice the long diameter of cell/total number of cells” value [3] was 9.0 ± 0.8%.

`CN1C(=O)Cc2cnc(N3CCNCC3)nc21` [Compound 414] was tested, and the “Cells having neurites with a length at least twice the long diameter of cell/total number of cells” value [4] was 15.0 ± 4.0%, the “Cells having neurites with a length at least twice the long diameter of cell/total number of cells” value [5] was 33.4 ± 2.6% and the “Cells having neurites with a length at least twice the long diameter of cell/total number of cells” value [6] was 43.6 ± 7.8%.

With `COC(=O)c1cnc(N2CCNCC2)nc1NC(C)C` [Compound 116] the “Cells having neurites with a length at least twice the long diameter of cell/total number of cells” value (Table 3 Run No. 10, 0.01 mM, control 1.7 ± 0.7) was 7.5 ± 2.2%, the “Cells having neurites with a length at least twice the long diameter of cell/total number of cells” value (Table 3 Run No. 10, 0.03 mM, control 1.7 ± 0.7) was 11.6 ± 2.0% and the “Cells having neurites with a length at least twice the long diameter of cell/total number of cells” value [14] was 10.6 ± 4.5%.
